Where two headings read alike, the source gives them in different places.
Legend:
[1] = system: MCF-7 breast cancer cell xenograft; assay: antitumor activity on MCF-7 breast cancer cell xenograft model; format: in vivo, BALB/c nude mice; conditions: for T/C (%) / TGI (%) / tumor volumn (mm^3) 17th day after grouping: oral, once a day, ARN-810 10/30 mg/kg, I-1 30 mg/kg; for T/C (%) / TGI (%): 17th day after grouping; for tumor volumn (mm^3) 17th day after grouping: Mean ± SEM
Experimental: Mice were inoculated subcutaneously with 0.36 mg estrogen sustained release tablet (60 days release) on the left shoulder three days before inoculation. When cells were in the logarithmic growth phase, cells were harvested, counted and adjusted to 10×10^7 cells/mL, then an equal volume of Matrigel was added, mixing for inoculation. 0.2 mL MCF-7 tumor cell suspension (10×10^6) was inoculated subcutaneously into the right shoulder of each mouse. On the 7th day after tumor cell inoculation, mice were grouped and administrated once a day, with an average tumor volume of 169 mm^3 and a body weight of 23.33 g. Tumor volume and body weight were measured twice a week after grouping, and the tumor growth rate (T/C) and tumor growth inhibition rate (TGI) were calculated based on the last measuring data on the 17th day after grouping.

[2] = in vivo PK properties (cassette PK); conditions: plasma; for AUC(0-t): read-out: AUC0-last (nm/hr); for Vd: read-out: Vdss
[3] = drug distribution in tissues (plasma, tumor, brain); format: in vivo, mice; conditions: for AUC0-last (nmol · h/kg) brain / AUC0-last (nmol · h/kg) plasma / AUC0-last (nmol · h/kg) tumor: dose 67.3 μmol/kg, 20th day after grouping
Experimental: On the 20th day after grouping, the sample was collected from plasma, tumor, breast and brain of the mice at four time points (2-3 mice each time point) which was respectively 0.5 hour, 1.5 hours, 6 hours and 24 hours after administration. The blood (0.5 mL) was collected using a 1.5 mL EDTA-K2 anticoagulation tube, immediately centrifuged at 4000 rpm, 4° C. for 10 minutes to prepare plasma, the plasma sample was stored at −80° C. for determination of drug concentration. The tumor was collected using a 2 mL cryotube, and the brain was collected using a 5 mL cryotube, the samples were immediately put into liquid nitrogen for quike freeze. All samples were stored at −80° C. for determination of drug concentration after sampling. The result was converted based on corresponding AUC to compare the drug distribution.

[4] = plasma protein binding rate (Human); format: in vitro ADME
CYP 2D6 = CYP 2D6 (Homo sapiens, UniProt P10635); assay: inhibition of CYP enzymes 2D6; format: in vitro ADME
[5] = plasma protein binding rate (CD-1 mouse); format: in vitro ADME
CYP 3A4 = CYP 3A4 (Homo sapiens, UniProt P08684); assay: inhibition of CYP enzymes 3A4; format: in vitro ADME
CYP 2C19 = CYP 2C19 (Homo sapiens, UniProt P33261); assay: inhibition of CYP enzymes 2C19; format: in vitro ADME
CYP 2C9 = CYP 2C9 (Homo sapiens, UniProt P11712); assay: inhibition of CYP enzymes 2C9; format: in vitro ADME
MCF-7 cells = assay: MCF-7 cell proliferation inhibition assay; format: cell-based; conditions: Homo sapiens, MCF7, 144 h; MCF-7 cells, 6 days incubation, CellTiter-Glo; read-out: anti-proliferation in MCF-7 cells
Experimental: Experimental Reagent: RPMI 1640 medium, fetal bovine serum, Promega CellTiter-Glo reagent. The cell line MCF-7 was purchased from The European Collection of Authenticated Cell Cultures (ECACC). Envision Multilabel Reader (PerkinElmer). Experimental Method: […] The cell plate was placed in a carbon dioxide incubator overnight. […] The cell plate was incubated in a carbon dioxide incubator for 6 days. Promega CellTiter-Glo reagent was added to the cell plate at 25 μL per well, cells were incubated for 10 minutes at room temperature to stabilize the luminescence signal, which was measured using PerkinElmer Envision Multilabel Reader. Data Analysis: […] (Model 205 in XLFIT5, iDBS)

CYP 1A2 = molecular target: T1, CYP 1A2 (Homo sapiens, UniProt P05177); assay: inhibition of CYP enzymes 1A2; format: in vitro ADME
T1 sequence (P05177 1-516): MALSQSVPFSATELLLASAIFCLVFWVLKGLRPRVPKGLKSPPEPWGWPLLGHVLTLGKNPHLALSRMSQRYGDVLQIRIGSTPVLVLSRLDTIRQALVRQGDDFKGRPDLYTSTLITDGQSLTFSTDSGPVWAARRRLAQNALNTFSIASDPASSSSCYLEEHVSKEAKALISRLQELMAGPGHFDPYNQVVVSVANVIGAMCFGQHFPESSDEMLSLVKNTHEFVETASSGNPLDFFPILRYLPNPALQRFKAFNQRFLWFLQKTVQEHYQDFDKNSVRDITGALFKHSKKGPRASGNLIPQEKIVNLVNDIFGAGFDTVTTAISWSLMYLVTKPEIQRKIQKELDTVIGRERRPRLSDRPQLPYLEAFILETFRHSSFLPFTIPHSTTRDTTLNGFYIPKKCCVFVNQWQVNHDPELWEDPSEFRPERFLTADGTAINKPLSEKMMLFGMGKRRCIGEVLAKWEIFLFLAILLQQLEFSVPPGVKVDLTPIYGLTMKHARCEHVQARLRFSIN

breast cancer = conditions: intramuscular injection, prior art statement; cited from earlier work
[6] = prior art statement; cited from earlier work

CYP 2C19, sequence (P33261 whole entry): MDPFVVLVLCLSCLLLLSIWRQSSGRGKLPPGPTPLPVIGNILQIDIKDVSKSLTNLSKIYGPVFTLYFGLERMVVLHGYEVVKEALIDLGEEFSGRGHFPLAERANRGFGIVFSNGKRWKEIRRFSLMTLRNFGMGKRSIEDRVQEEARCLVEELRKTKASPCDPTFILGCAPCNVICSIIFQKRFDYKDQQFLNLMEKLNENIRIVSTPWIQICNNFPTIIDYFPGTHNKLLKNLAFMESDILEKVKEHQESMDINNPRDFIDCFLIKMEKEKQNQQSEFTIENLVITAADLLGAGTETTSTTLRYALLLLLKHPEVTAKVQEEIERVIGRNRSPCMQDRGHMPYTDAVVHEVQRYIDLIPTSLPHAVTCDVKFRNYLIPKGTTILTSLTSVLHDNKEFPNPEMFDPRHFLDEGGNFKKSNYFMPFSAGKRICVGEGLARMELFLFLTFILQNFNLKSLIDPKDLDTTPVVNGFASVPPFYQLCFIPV
CYP 3A4, sequence (P08684 whole entry): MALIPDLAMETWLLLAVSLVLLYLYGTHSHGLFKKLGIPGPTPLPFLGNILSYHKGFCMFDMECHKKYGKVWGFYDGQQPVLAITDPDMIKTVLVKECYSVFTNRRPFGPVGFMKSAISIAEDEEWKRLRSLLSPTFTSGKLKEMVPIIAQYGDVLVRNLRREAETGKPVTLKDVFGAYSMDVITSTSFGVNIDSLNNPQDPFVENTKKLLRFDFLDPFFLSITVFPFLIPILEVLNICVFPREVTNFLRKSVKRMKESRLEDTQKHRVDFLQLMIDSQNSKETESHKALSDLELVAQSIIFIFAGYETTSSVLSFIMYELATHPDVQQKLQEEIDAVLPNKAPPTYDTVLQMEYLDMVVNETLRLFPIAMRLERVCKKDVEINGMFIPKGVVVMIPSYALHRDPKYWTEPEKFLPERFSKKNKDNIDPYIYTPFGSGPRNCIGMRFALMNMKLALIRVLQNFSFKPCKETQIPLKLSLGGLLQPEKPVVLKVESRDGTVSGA
CYP 2C9, sequence (P11712 whole entry): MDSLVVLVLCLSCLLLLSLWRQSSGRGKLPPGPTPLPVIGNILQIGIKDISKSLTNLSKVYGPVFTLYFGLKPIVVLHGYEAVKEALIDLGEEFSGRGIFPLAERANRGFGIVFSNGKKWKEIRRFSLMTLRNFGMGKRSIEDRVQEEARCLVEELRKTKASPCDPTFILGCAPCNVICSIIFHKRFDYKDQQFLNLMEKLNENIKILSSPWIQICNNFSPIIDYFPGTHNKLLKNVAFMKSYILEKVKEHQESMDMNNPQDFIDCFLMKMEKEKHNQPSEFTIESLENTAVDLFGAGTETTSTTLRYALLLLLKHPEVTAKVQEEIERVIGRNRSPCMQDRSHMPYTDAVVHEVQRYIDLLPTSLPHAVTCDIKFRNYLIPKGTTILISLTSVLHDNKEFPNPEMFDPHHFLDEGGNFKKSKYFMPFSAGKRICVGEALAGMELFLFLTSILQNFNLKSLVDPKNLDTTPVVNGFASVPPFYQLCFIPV
CYP 2D6, sequence (P10635 whole entry): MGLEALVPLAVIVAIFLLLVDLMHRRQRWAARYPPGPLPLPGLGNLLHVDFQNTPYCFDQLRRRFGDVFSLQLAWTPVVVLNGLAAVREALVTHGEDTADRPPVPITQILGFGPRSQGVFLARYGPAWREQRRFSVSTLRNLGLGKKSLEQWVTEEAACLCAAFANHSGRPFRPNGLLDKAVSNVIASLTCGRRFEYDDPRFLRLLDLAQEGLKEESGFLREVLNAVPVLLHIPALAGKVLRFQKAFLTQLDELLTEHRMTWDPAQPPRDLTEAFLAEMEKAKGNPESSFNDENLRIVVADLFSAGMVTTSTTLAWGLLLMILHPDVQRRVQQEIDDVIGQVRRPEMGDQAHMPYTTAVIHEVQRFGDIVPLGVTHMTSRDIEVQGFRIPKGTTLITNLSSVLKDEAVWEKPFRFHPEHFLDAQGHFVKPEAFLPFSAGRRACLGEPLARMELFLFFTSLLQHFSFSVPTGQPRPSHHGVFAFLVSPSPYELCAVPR

| SMILES | T/C (%) [1] [%] | TGI (%) [1] [%] | tumor volumn (mm^3) 17th day after grouping [1] [mm^3] | C0 ([2]; iv, 1 mg/kg, i.V. 1 mpk) [nM] | clearance ([2]; iv, 1 mg/kg, i.V. 1 mpk) [mL/min/kg] | half-life ([2]; iv, 1 mg/kg, i.V. 1 mpk) [h] | AUC(0-t) ([2]; iv, 1 mg/kg, i.V. 1 mpk) [µM·h] | Vd ([2]; iv, 1 mg/kg, i.V. 1 mpk) [L/kg] | Cmax ([2]; po, 2.5 mg/kg, P.O 2.5 mpk) [nM] | Tmax ([2]; po, 2.5 mg/kg, P.O 2.5 mpk) [h] | bioavailability ([2]; po, 2.5 mg/kg, P.O 2.5 mpk) [%] | half-life ([2]; po, 2.5 mg/kg, P.O 2.5 mpk) [h] | AUC(0-t) ([2]; po, 2.5 mg/kg, P.O 2.5 mpk) [µM·h] | AUC0-last (nmol · h/kg) brain [3] [nmol·h/kg] | AUC0-last (nmol · h/kg) plasma [3] [nmol·h/kg] | AUC0-last (nmol · h/kg) tumor [3] [nmol·h/kg] | further results |
| --- | --- | --- | --- | --- | --- | --- | --- | --- | --- | --- | --- | --- | --- | --- | --- | --- | --- |
| CC/C(=C(/c1ccc(/C=C/C(=O)O)cc1)c1ccc2[nH]ncc2c1)c1ccc(F)cc1Cl [ARN-810, reference compound] | 43.4 | 75.7 | 290 ± 38 | 1640 | 18.9 | 1.35 | 1.99 | 1.93 | 924 | 0.417 | 66 | 3.49 | 3.28 | 3490 | 33545 | 11368 |  |
| CC/C(=C(/c1ccc(/C=C/C(=O)O)cc1)c1cc2ccccc2[nH]1)c1ccc(F)cc1Cl [Compound I-1] | 30.1 | 93.6 | 201 ± 27 | 3480 | 3.61 | 2.81 | 10.4 | 0.992 | 2150 | 3.33 | 70.6 | 3.18 | 18.3 | 43167 | 118937 | 55487 | fraction unbound [4]: 0.028; IC50 (CYP 2D6): 43.4 µM; fraction unbound [5]: 0.012; antitumor activity compared with ARN-810 ([1]; oral I-1 30 mg/kg versus oral ARN-810 10/30 mg/kg): superior; IC50 (CYP 3A4): 25.1 µM; distribution in brain tissue compared with ARN-810 ([3]; brain tissue): much better; distribution in tumor tissue compared with ARN-810 ([3]; tumor tissue): much better; IC50 (CYP 2C19): 40.4 µM; IC50 (CYP 2C9): 10.1 µM; IC50 (MCF-7 cells): 0.0385 µM; IC50 (CYP 1A2): 25.5 µM |
| C[C@]12CC[C@@H]3c4ccc(O)cc4C[C@@H](CCCCCCCCC[S+]([O-])CCCC(F)(F)C(F)(F)F)[C@H]3[C@@H]1CC[C@@H]2O (stereo partly drawn) [fulvestrant] |  |  |  |  |  |  |  |  |  |  |  |  |  |  |  |  | breast cancer patients showing clinical response (breast cancer): about 50%; oral bioavailability [6]: zero |
